In paper PMC8560763, “Roles of metal ions in the selective inhibition of oncogenic variants of isocitrate dehydrogenase 1” (Communications Biology, 2021):
“And” between values parts separate entries of the source, which are not always exact repeats. Equal entries are not always repeated.

Experiments:
wt IDH1 [1] = molecular target: T1, wt IDH1 (Homo sapiens, UniProt O75874); assay: Differential scanning fluorimetry (DSF) thermal shift, wt IDH1; assay type: binding; conditions: for Δ in Tm: Fig. 2e; for thermal stabilisation: wt IDH1, Mg^2+ alone, 0.032–20 mM
T1 construct: made in house; host or cells: Escherichia coli BL21(DE3) pLyS
T1 sequence (O75874 2-414): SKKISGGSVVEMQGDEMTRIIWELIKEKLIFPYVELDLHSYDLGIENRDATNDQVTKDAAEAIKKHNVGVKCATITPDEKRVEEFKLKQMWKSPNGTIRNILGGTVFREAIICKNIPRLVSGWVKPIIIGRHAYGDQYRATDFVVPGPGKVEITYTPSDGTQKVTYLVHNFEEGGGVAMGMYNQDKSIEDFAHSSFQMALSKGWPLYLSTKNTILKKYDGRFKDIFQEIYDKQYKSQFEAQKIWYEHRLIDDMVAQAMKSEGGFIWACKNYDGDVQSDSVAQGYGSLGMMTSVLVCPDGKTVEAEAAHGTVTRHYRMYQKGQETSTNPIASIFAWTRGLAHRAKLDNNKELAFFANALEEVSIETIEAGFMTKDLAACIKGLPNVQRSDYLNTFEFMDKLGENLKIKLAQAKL
Experimental: Thermal shift experiments were carried out using Sypro Orange dye and a CFX96 Touch^TM Real-Time PCR Detection System (Bio-Rad)[69]. […] The standard assay buffer contains 50 mM Tris-HCl at pH 7.5. Various concentrations of substrates were mixed with IDH1 for thermal stabilisation studies. […] Bio-Rad CFX Manager was used to determine the melting temperature, Tm.

wt IDH1 [2] = molecular target: T1, wt IDH1; assay: Isothermal titration calorimetry (ITC), binding to wt IDH1; conditions: alone, EDTA-treated wt IDH1, 50 mM Tris-HCl, pH 7.5
Experimental: ITC experiments were conducted using a Malvern MicroCal PEAQ-ITC Automated machine. In general, the protein was prepared in 50 mM Tris-HCl ± 5 mM metal chloride salts at pH 7.5; substrates were dissolved in the same buffer. Four hundred microlitres of cell solution and 200 µL of titrant were transferred to an ITC plate. […] The injection setup consisted of 19 injections that have one initial injection of 0.4 µL and 18 injections of 2.0 µL each with 150 s between the injections. The thermodynamic parameters were obtained using the MicroCal PEAQ-ITC analysis software.

[3] = ITC, metal ion binding to DL-isocitrate; conditions: read-out: KD for metal ion binding to DL-isocitrate; metal ion (10 mM), DL-isocitrate (500 µM), 50 mM Tris-HCl, pH 7.5
Experimental: ITC experiments were conducted using a Malvern MicroCal PEAQ-ITC Automated machine. In general, the protein was prepared in 50 mM Tris-HCl ± 5 mM metal chloride salts at pH 7.5; substrates were dissolved in the same buffer. Four hundred microlitres of cell solution and 200 µL of titrant were transferred to an ITC plate. Titrations were conducted at 25 °C with an initial delay of 60 s and a stir speed of 750 r.p.m. The injection setup consisted of 19 injections that have one initial injection of 0.4 µL and 18 injections of 2.0 µL each with 150 s between the injections. The thermodynamic parameters were obtained using the MicroCal PEAQ-ITC analysis software.

wt IDH1 [4] = molecular target: T1, wt IDH1; assay: Absorbance assay (NADPH, 340 nm): kinetics of oxidative reaction (isocitrate to 2OG) by wt IDH1; assay type: biochemical
Experimental: (§1) All experiments were performed in (at least) triplicate.
(§2) KM values were determined by varying concentrations of the substrate/cofactor under investigation while maintaining the concentrations of other components using standard conditions. […] Graphs were fitted using GraphPad Prism to obtain kinetic parameters.

wt IDH1 [5] = molecular target: T1, wt IDH1; assay: Absorbance assay: effect of metal ions on catalysis and inhibition of wt IDH1; assay type: biochemical; conditions: wt IDH1, metal ions 10 mM
Experimental: Inhibition assays of wt or R132H IDH1 with metal ions were conducted with a 12 min pre-incubation of metal ions (25 µL, final concentration 10 mM) and enzyme (25 µL) before the addition of substrate (25 µL) and cofactor (25 µL). […] The difference in absorbance, ΔA340, in the linear range of the reaction profile was converted to % residual activity with the DMSO control being the 100% residual activity reference.

wt IDH1 [6] = molecular target: T1, wt IDH1; assay: Absorbance assay: kinetics of reductive reaction (2OG to isocitrate) by wt IDH1; assay type: biochemical; conditions: wt IDH1, reductive reaction with Mg^2+
Experimental: as §1, §2

[7] = wt IDH1, oxidative reaction with Mg^2+ (10 mM MgCl2)

SMILES: [Cl-].[Cl-].[Mg+2] [MgCl2]
- Δ in Tm (wt IDH1 [1]; wt IDH1, 0.8 mM MgCl2, replicates): -0.3 °C and -0.1 °C (2×)
- Δ in Tm (wt IDH1 [1]; wt IDH1, 4 mM MgCl2, replicates): -0.1 °C
- Δ in Tm (wt IDH1 [1]; wt IDH1, 20 mM MgCl2, replicates): -0.5 °C and -0.1 °C (2×)
- thermal stabilisation (wt IDH1 [1]): no thermal shift
- thermal stabilisation (wt IDH1 [1]; listed as Mg^2+): does not stabilise
- thermal stabilisation (shift in Tm) (wt IDH1 [1]; wt IDH1, divalent metal ions (5 mM), 50 mM Tris-HCl, pH 7.5): less stabilising effect
- Kd (wt IDH1 [2]): > 8 mM
- Kd [3]: 1.5 mM
- Velocity (wt IDH1 [4]; Fig. S2c, [MgCl2] 1.95312 μM): 0.01456 µM/s and 0.01492 µM/s and 0.01895 µM/s
- Velocity (wt IDH1 [4]; Fig. S2c, [MgCl2] 3.90625 μM): 0.02158 µM/s and 0.02123 µM/s and 0.02246 µM/s
- Velocity (wt IDH1 [4]; Fig. S2c, [MgCl2] 7.8125 μM): 0.03106 µM/s and 0.03492 µM/s and 0.04106 µM/s
- Velocity (wt IDH1 [4]; Fig. S2c, [MgCl2] 15.625 μM): 0.05387 µM/s and 0.06159 µM/s and 0.06633 µM/s
- Velocity (wt IDH1 [4]; Fig. S2c, [MgCl2] 31.25 μM): 0.08809 µM/s and 0.1025 µM/s and 0.1206 µM/s
- Velocity (wt IDH1 [4]; Fig. S2c, [MgCl2] 62.5 μM): 0.1304 µM/s and 0.136 µM/s and 0.1651 µM/s
- Velocity (wt IDH1 [4]; Fig. S2c, [MgCl2] 250 μM): 0.1516 µM/s and 0.1788 µM/s and 0.1943 µM/s
- Velocity (wt IDH1 [4]; Fig. S2c, [MgCl2] 500 μM): 0.1764 µM/s and 0.1771 µM/s and 0.2318 µM/s
- Velocity (wt IDH1 [4]; Fig. S2c, [MgCl2] 1000 μM): 0.1957 µM/s and 0.2076 µM/s and 0.2279 µM/s
- Velocity (wt IDH1 [4]; Fig. S2c, [MgCl2] 2000 μM): 0.2057 µM/s and 0.2199 µM/s and 0.2304 µM/s
- Velocity (wt IDH1 [4]; Fig. S2d, [MgCl2] 15.625 μM): 0.01053 µM/s and 0.01316 µM/s
- Velocity (wt IDH1 [4]; Fig. S2d, [MgCl2] 31.25 μM): 0.02369 µM/s and 0.03159 µM/s and 0.03685 µM/s
- Velocity (wt IDH1 [4]; Fig. S2d, [MgCl2] 62.5 μM): 0.03422 µM/s and 0.03685 µM/s and 0.04738 µM/s
- Velocity (wt IDH1 [4]; Fig. S2d, [MgCl2] 250 μM): 0.0737 µM/s and 0.08423 µM/s and 0.07633 µM/s
- Velocity (wt IDH1 [4]; Fig. S2d, [MgCl2] 500 μM): 0.09476 µM/s and 0.07896 µM/s
- Velocity (wt IDH1 [4]; Fig. S2d, [MgCl2] 1000 μM): 0.1027 µM/s and 0.08949 µM/s and 0.09476 µM/s
- Velocity (wt IDH1 [4]; Fig. S2d, [MgCl2] 2000 μM): 0.08949 µM/s and 0.1079 µM/s and 0.09212 µM/s
- kcat (wt IDH1 [4]; wt IDH1, oxidative reaction with Mg^2+): 50 ± 4 s⁻¹
- Km (wt IDH1 [4]; [7]): 36 ± 4 µM
- Vmax (wt IDH1 [4]; [7]): 214 ± 5 nM/s
- Km (wt IDH1 [4]; wt IDH1 isocitrate oxidation, in the presence of 150 mM NaCl): 94 µM
- effect of metal ion on catalysis (wt IDH1 [5]): promoted
- kcat (wt IDH1 [6]): 2.1 ± 0.1 s⁻¹
